Measured values from US20030187023A1, “Sulfone derivatives, process for their production and use thereof” (priority 2000, published 2003).
pIC50: −log10 of the molar value.

Biological target: human FXa (Homo sapiens, UniProt P00742)
Experiment: Human activated coagulation factor X (FXa) inhibiting effect
Type: biochemical
Settings: human FXa (0.3 unit/ml), substrate S-2765, 37° C., tris buffer pH 8.3, absorbance at 405 nm
Experimental: (1) Human Activated Coagulation Factor X (FXa) Inhibiting Effect
Method: A cuvette was charged with 225 μl of 0.05 M tris buffer (pH 8.3) containing 0.145 M sodium chloride and 2 mM calcium chloride, 5 μl of a sample (test compound dissolved in dimethyl sulfoxide) and 10 μl of human FXa (0.3 unit/ml), which were reacted at 37° C. for 10 minutes and then combined with 10 μl of a substrate (3 mM, S-2765) and further reacted at 37° C. for 10 minutes. Then the reaction was terminated by adding 25 μl of 50% aqueous acetic acid, and the change in the absorbance at 405 nm was determined using a spectrophotometer to calculate the concentration at which the FXa effect was inhibited by 50% (IC50).

Sequence of human FXa (P00742 235-488 limits assumed): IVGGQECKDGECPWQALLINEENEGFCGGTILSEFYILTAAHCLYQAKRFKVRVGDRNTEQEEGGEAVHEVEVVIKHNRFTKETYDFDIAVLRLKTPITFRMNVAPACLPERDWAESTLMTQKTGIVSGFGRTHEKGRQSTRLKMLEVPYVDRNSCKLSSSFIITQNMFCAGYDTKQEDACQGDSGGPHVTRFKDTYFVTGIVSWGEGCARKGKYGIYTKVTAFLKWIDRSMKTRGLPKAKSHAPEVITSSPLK
Sequence of human FXa (P00742 41-179 partner limits assumed): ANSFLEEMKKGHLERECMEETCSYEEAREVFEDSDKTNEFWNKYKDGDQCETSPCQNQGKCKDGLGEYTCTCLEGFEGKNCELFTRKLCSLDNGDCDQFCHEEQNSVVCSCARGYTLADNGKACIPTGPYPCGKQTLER

Compound	pIC50
4-(6-Chloro-2-naphthyl)sulfonyl-N-methyl-N-[1-(2-methyl-4-pyridyl)-4-piperidinyl]propanamide [Example 42]	7.21
N-(2-Aminoethyl)-3-(6-chloro-2-naphthyl)sulfonyl-N-[1-(2-methyl-4-pyridyl)-4-piperidyl]propanamide ditrifluoroacetate [Example 53]	7.02
Cc1cc(N2CCC(N(CCC(=O)N3CC[S+]([O-])CC3)C(=O)CCS(=O)(=O)c3ccc4cc(Cl)ccc4c3)CC2)ccn1 [Example 68, 3-(6-Chloro-2-naphthyl)sulfonyl-N-[1-(2-methyl-4-pydiryl)-4-piperidyl]-N-[3-oxy-3-(1-oxothiomorpholin-4-yl)propyl]propionamide]	7.47
CCOC(=O)CCN(C(=O)CCS(=O)(=O)c1ccc2cc(Cl)ccc2c1)C1CCN(c2ccnc(C)c2)CC1 [Example 67, Ethyl 3-[N-[3-(6-chloro-2-naphthyl)sulfonylpropanoyl]-N-[1-(2-methyl-4-pyridyl)-4-piperidyl]amino]propionate]	7.60
CC(=O)NCCN(C(=O)CCS(=O)(=O)c1ccc2cc(Cl)ccc2c1)C1CCN(c2ccnc(C)c2)CC1 [Example 52, N-(2-Acetylaminoethyl)-3-(6-chloro-2-naphthyl)sulfonyl-N-[1-(2-methyl-4-pyridyl)-4-piperidyl]propanamide]	7.31
CS(=O)(=O)NCCN(C(=O)CCS(=O)(=O)c1ccc2cc(Cl)ccc2c1)C1CCN(c2ccncc2)CC1 [Example 55, 3-(6-Chloro-2-naphthyl)sulfonyl-N-(2-methylsulfonylaminoethyl)-N-[1-(4-pyridyl)-4-piperidyl]propanamide]	7.40
CCOC(=O)CCN(C(=O)CCS(=O)(=O)c1ccc2cc(Cl)ccc2c1)C1CCN(c2ccncc2)CC1 [Example 34, Ethyl 3-[N-[3-(6-chloro-2-naphthyl)sulfonylpropioyl]-N-[1-(4-pyridyl)-4-piperidyl]amino]propionate]	7.43
4-(6-Chloro-2-naphthyl)sulfonyl-N-methyl-N-[1-(4-pyridyl)-4-piperidyl]propanamide [Example 31]	7.30
Cc1cc(N2CCC(N(Cc3ccccn3)C(=O)CCS(=O)(=O)c3ccc4cc(Cl)ccc4c3)CC2)ccn1 [Example 129, 3-(6-Chloro-2-naphthyl)sulfonyl-N-[1-(2-methyl-4-pyridyl)-4-piperidyl]-N-(2-pyridyl)methylpropanamide]	7.18
CC(=O)NCCN(C(=O)CCS(=O)(=O)c1ccc2cc(Cl)ccc2c1)C1CCN(c2ccncc2)CC1 [Example 54, N-(2-Acetylaminoethyl)-3-(6-chloro-2-naphthyl)sulfonyl-N-[1-(4-pyridyl)-4-piperidyl]propanamide]	7.41
4-(6-Bromo-2-naphthyl)sulfonyl-N-methyl-N-[1-(2-methyl-4-pyridyl)-4-piperidyl]propanamide [Example 64]	7.44
Cc1cc(N2CCC(N(C)C(=O)CCS(=O)(=O)c3ccc4cc(Cl)ccc4c3)CC2)cc(C)n1 [Example 118, 3-(6-Chloro-2-naphthyl)sulfonyl-N-[1-(2,6-dimethyl-4-pyridyl)-4-piperidyl]-N-propanamide]	7.20
CN(CCCS(=O)(=O)c1ccc2cc(Cl)ccc2c1)C(=O)C1CCN(c2ccncc2)CC1 [Example 5, N-[3-(6-Chloro-2-naphthyl)sulfonylpropyl]-N-methyl-1-(4-pyridyl)-4-piperidinecarboxamide]	7.02
CC(=O)N(C)CCN(C(=O)CCS(=O)(=O)c1ccc2cc(Cl)ccc2c1)C1CCN(c2ccnc(C)c2)CC1 [Example 75, N-[2-(N-Acetyl-N-methylamino)ethyl]-3-(6-chloro-2-naphthyl)sulfonyl-N-[1-(2-methyl-4-pyridyl)-4-piperidyl]propanamide]	7.23
CCOC(=O)CN(C(=O)CCS(=O)(=O)c1ccc2cc(Cl)ccc2c1)C1CCN(c2ccncc2)CC1 [Example 33, Ethyl 2-[N-[3-(6-chloro-2-naphthyl)sulfonylpropioyl]-N-[1-(4-pyridyl)-4-piperidyl]amino]acetate]	7.26
COC(=O)CN(CCCS(=O)(=O)c1ccc2cc(Cl)ccc2c1)C(=O)C1CCN(c2ccncc2)CC1 [Example 14, Methyl 2-[N-[3-(6-chloro-2-naphthyl)sulfonylpropyl]-N-[[1-(4-pyridyl)-4-piperidinyl]carbonyl]amino]acetate]	7.22
